According to patent US5877030A, “Process for creating molecular diversity and novel protease inhibitors produced thereby” (priority 1995, dated 1999):

What was measured:
[1] = rat model; Sobajima et al.; cited from earlier work
[2] = target: T1, trypsin (Bos taurus, UniProt P00760); assay: Ki determination on trypsin (BAPA substrate, Michaelis-Menten / reciprocal plots); type: biochemical; conditions: for Ki: preliminary investigations
T1 sequence (P00760 24-246): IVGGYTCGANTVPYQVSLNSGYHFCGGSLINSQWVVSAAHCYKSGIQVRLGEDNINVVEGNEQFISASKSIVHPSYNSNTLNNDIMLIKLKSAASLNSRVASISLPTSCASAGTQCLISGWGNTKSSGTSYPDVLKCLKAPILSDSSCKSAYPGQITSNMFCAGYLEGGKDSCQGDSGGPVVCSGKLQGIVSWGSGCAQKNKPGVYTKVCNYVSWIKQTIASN
Experimental: The rate of the trypsin catalyzed reaction was determined by monitoring the increase in absorbance at 410 nm over time. In all measurements 5% (v/v) of dimethylsulfoxide (DMSO) was added to solubilize the libraries. For a typical assay, 50 μL of a library solution in DMSO and 10 μL of the trypsin stock solution (2.5 mg trypsin in 25 mL 0.001M HCl) were added to 5 mL of buffer (0.5M Tris-HCl, 0.16M CaCl21 pH 8.2) at 25° C. In regard to FIG. 19, the library solutions used for Charts A and B contained 2.5 mg in 50 μL DMSO; the library solution for Chart C contained 1 mg in 50 AL DMSO and the library solution for Chart D contained 0.5 mg in 50 μL DMSO.
After incubating for 10 min., the cloudy mixture was centrifuged, 0.4 mL of the clear supernatant was removed and diluted with 400 μL of buffer in a disposable 1.5 mL UV cuvette. Then, 50 μL of the BAPA (defined below) stock solution (50 mg BAPA in 5 mL DMSO) was added and the increase in absorbance at 410 nm was monitored. The trypsin activity was compared to a reference cuvette without added library material (B).
Methods for determining the Ki of an enzyme inhibitor would be known to those of ordinary skill in the art. (See also "Enzyme Kinetics & Behavior, Analysis of Rapid Equilibrium, and Steady State Enzyme Systems", ed. Segel, John Wiley & Sons, Inc., N.Y., N.Y. (1993), the contents of which are incorporated herein by reference.) A summary of the procedure used to obtain the Ki value for compound of Formula V.

[3] = target: T1, trypsin; assay: Trypsin inhibitor assay (trypsin-catalyzed hydrolysis of BAPA, absorbance at 410 nm), iterative screening of libraries; type: biochemical; conditions: comparison in words
Experimental: Each sub-library 1A-1F was tested for its ability to inhibit trypsin activity and the percent trypsin activity was correlated to the specific tool molecule group (see Table 3) that had been omitted during synthesis of the sub-library being assayed.

[4] = system: thrombin; assay: Specificity against other proteases such as thrombin (initial experiments); type: biochemical

| mode of inhibition of trypsin ([2]; 1/velocity vs. 1/(substrate concentration), five inhibitor concentrations 1×10^-6 M to 1×10^-4 M) | Ki ([2]; 'in the 10 μM range') [µM] | Ki ([2]; trypsin 7.4×10^-8 M, BAPA 2×10^-4 M to 7×10^-3 M, inhibitor 1×10^-6 M to 1×10^-4 M) [µM] | SMILES | treatment of severe acute pancreatitis [1] | activity relative to structural isomer Formula VI [3] | interference with other proteases, such as thrombin [4] |
| --- | --- | --- | --- | --- | --- | --- |
| – | – | – | CS(=O)(=O)O.N=C(N)Nc1ccc(C(=O)Oc2ccc(SCCN3C(=O)CCC3=O)cc2)cc1 [4-(2-succinimidoethylthio)-phenyl 4-guanidinobenzoate methane sulfonate] | treating severe acute pancreatitis | – | – |
| competitive inhibitor of trypsin | ~10 | ~9 | CC[C@H](C)[C@H](NC(=O)c1cc(C(=O)N2CCC[C@H]2C(=O)O)cc2c1Oc1c(C(=O)N[C@@H](CCCCN)C(=O)OC)cc(C(=O)N[C@H](C(=O)O)C(C)C)cc1C2(C)C)C(=O)O [Formula V] | – | significantly more active than its structural isomer Formula VI | does not interfere with other proteases, such as thrombin |
